Test results: patent US7429557B2, “Replacement solvents having improved properties and methods of using the same” (Mainstream Engineering Corporation, priority 2005, dated 2008)
Read-outs that look alike come from different tables or passages of the source.

Legend:
[1] = listed; cited from earlier work
[2] = Coated metal coupon cleaning, gravimetric; details: 15 minute immersion, 15 mL
Method: (§1) A sample comprising 25 volume percent (A.) 4-bromo-3-chloro-3,4,4-trifluoro-1-butene and 75 volume percent (B.) 1-chloro-2,2,2-trifluoroethyl difluoromethyl ether was added to several beakers, each containing a metal coupon completely coated with one of the following materials: Mil Spec 83282 hydraulic oil, Mil Spec 7808 engine oil, Krytox fluorocarbon grease and Mil Spec 81322 aviation grease. Two batches were subjected to 15 minute immersion with 15 mL of solvent mixture but one was exposed to ultrasonic vibrations and the other kept static. Afterwards, the coupons were removed and weighed for gravimetric analysis.
as §1, with “50” for “25”, “50” for “75”
(§2) Two batches were subjected to 15 minute immersion with 15 mL of solvent mixture but one was exposed to ultrasonic vibrations and the other kept static. Afterwards, the coupons were removed and weighed for gravimetric analysis.

[3] = Coated metal coupon cleaning, gravimetric; details: Krytox, 15 minute immersion, 15 mL
Method: as §1
as §1, with “50” for “25”, “50” for “75”
as §2
The compounds (A) 4-bromo-3-chloro-3,4,4-trifluoro-1-butene and (B) 1-chloro-2,2,2-trifluoroethyl difluoromethyl ether, were mixed 50:50 by volume and tested to remove Krytox. The individual components, A and B, remove 17.0% and 98.7%, respectively, of this contaminant after 15 min. with ultrasonic treatment. The mixture removed 99.3% of the same contaminant under the same conditions.

Chinese hamster = assay: In vitro genotoxicity; details: in vitro Chinese hamster oocytes
Excerpt: (§3) Skin irritation is also an important consideration for a solvent.

Ames mutagenicity assay = assay: Ames mutagenicity assay
Excerpt: as §3

LD50 = details: in vivo
Excerpt: Toxicity is yet another factor which must be considered when selecting second-generation replacement solvents. Parameters such as the lethal dose 50 (LD50), lethal concentration 50 (LC50), cardiac sensitization, skin irritation, and mutagenicity (e.g., via the Ames test) can be used as measures. LDn or LCn abbreviation, where n is the percent lethality, is used for the dose of a toxicant lethal to n % of a test population. […] Cardiac sensitization is a measure of the ability of a compound to cause cardiac arrhythmia under stress.
as §3

Skin irritation = details: in vivo
Excerpt: as §3

FC(F)(Cl)C(F)(Cl)Cl [CFC-113, 1,1,2-trichloro-1,2,2-trifluoroethane]
skin irritation [1]: mild irritant
percent contaminant removed ([2]; 7808 oil, Static): 100%
percent contaminant removed ([2]; 7808 oil, Ultrasonic): 99.2%
percent contaminant removed ([2]; 81322 grease, Static): 24.1%
percent contaminant removed ([2]; 81322 grease, Ultrasonic): 94.8%
percent contaminant removed ([2]; 83282 oil, Static): 100%
percent contaminant removed ([2]; 83282 oil, Ultrasonic): 100%
percent contaminant removed ([3]; Static): 36.2%
percent contaminant removed ([3]; Ultrasonic): 97.7%

COC(C(F)(F)F)C(F)(F)F [E, methyl 2,2,2-trifluoroethyl-1-(trifluoromethyl)ether]
genotoxicity (Chinese hamster): not genotoxic
Ames mutagenicity assay (Ames mutagenicity assay): negative
LD50 (LD50): > 40000 mg/kg
skin irritation (Skin irritation): moderate to non-irritants

FC(F)OC(F)(F)C(F)Cl (stereo not drawn) [Compound C, 2-chloro-1,1,2-trifluoroethyl difluoromethyl ether]
genotoxicity (Chinese hamster): not genotoxic
Ames mutagenicity assay (Ames mutagenicity assay): negative
LD50 (LD50): 13000 mg/kg
skin irritation (Skin irritation): moderate to non-irritants

FC(F)OC(Cl)C(F)(F)F (stereo not drawn) [Compound B, 1-chloro-2,2,2 trifluoroethyl difluoromethyl ether]
genotoxicity (Chinese hamster): not genotoxic
Ames mutagenicity assay (Ames mutagenicity assay): negative
LD50 (LD50): 8100 mg/kg
percent contaminant removed ([3]; Ultrasonic): 98.7%
skin irritation (Skin irritation): moderate to non-irritants

C=CC(F)(Cl)C(F)(F)Br (stereo not drawn) [A, 4-bromo-3-chloro-3,4,4-trifluoro-1-butene]
genotoxicity (Chinese hamster): not genotoxic
Ames mutagenicity assay (Ames mutagenicity assay): negative
LD50 (LD50): > 40000 mg/kg
percent contaminant removed ([3]; Ultrasonic): 17.0%
skin irritation (Skin irritation): moderate to non-irritants
